According to ChEMBL document CHEMBL1201862, “PubChem BioAssay data set” (2004):
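Grown in 96-well plates, cells were treated for 48 hours with each compound at five concentrations. Insufficient inhibition: endpoint recorded as highest concentration tested. GI50: concentration for 50% inhibition of growth.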 The source made the active and inactive calls. No stated cut-off is given here; in the data, active = GI50 up to about 1.1 µM and inactive = higher.

Key:
Experiment in all cases: DTP human tumour cell line panel, 48 h
[1] = test system: SK-MEL-5
[2] = test system: HT-29
[3] = test system: HCT-116
[4] = test system: HOP-92
[5] = test system: U-251
[6] = test system: NCI-H226
[7] = test system: M14
[8] = test system: CCRF-CEM
[9] = test system: NCI-H460
[10] = test system: RXF 393
[11] = test system: OVCAR-8
[12] = test system: NCI-H522
[13] = test system: SK-MEL-28
[14] = test system: 786-0
[15] = test system: SNB-75
[16] = test system: OVCAR-5
[17] = test system: PC-3
[18] = test system: IGROV-1
[19] = test system: HOP-62
[20] = test system: Malme-3M

| Compound | GI50 [1] | GI50 [2] | GI50 [3] | GI50 [4] | GI50 [5] | GI50 [6] | GI50 [7] | GI50 [8] | GI50 [9] | GI50 [10] | GI50 [11] | GI50 [12] | GI50 [13] | GI50 [14] | GI50 [15] | GI50 [16] | GI50 [17] | GI50 [18] | GI50 [19] | GI50 [20] |
| --- | --- | --- | --- | --- | --- | --- | --- | --- | --- | --- | --- | --- | --- | --- | --- | --- | --- | --- | --- | --- |
| CC(N)/C(N)=N/O (stereo not given) | > 100 µM (inactive) | > 100 µM (inactive) | > 100 µM (inactive) | > 100 µM (inactive) | > 100 µM (inactive) | > 100 µM (inactive) | > 100 µM (inactive) | > 100 µM (inactive) | > 100 µM (inactive) | > 100 µM (inactive) | > 100 µM (inactive) | > 100 µM (inactive) | > 100 µM (inactive) | > 100 µM (inactive) | > 100 µM (inactive) | > 100 µM (inactive) | > 100 µM (inactive) | > 100 µM (inactive) | > 100 µM (inactive) | > 100 µM (inactive) |
| Cl/C(=C\C=N\c1ccc(I)cc1)c1ccc2ccccc2c1 | 18 µM (inactive) | 40.5 µM (inactive) | 16.1 µM (inactive) | 41.6 µM (inactive) | 16.4 µM (inactive) | 20.8 µM (inactive) | 14.3 µM (inactive) | 7.29 µM (inactive) | 24.2 µM (inactive) | 22.2 µM (inactive) | 17.4 µM (inactive) | 27.2 µM (inactive) | 21.4 µM (inactive) | 17.6 µM (inactive) | 28.4 µM (inactive) | 34.6 µM (inactive) | 25.3 µM (inactive) | 17.9 µM (inactive) | 17.7 µM (inactive) | 20.6 µM (inactive) |
| CN(Cc1cc(C(C)(C)C)cc(Br)c1O)Cc1cc(C(C)(C)C)cc(Br)c1O | 2.76 µM (inactive) | 4.48 µM (inactive) | 3.05 µM (inactive) | 4.23 µM (inactive) | 2.65 µM (inactive) | 4.18 µM (inactive) | 4.28 µM (inactive) | 2.7 µM (inactive) | 1.87 µM (inactive) | 2.21 µM (inactive) | 4.33 µM (inactive) | 2.84 µM (inactive) | 5.14 µM (inactive) | 3.69 µM (inactive) | 3.66 µM (inactive) | 5.52 µM (inactive) | 2.96 µM (inactive) | 1.72 µM (inactive) | 4.08 µM (inactive) | 4.58 µM (inactive) |
| c1ccc(CCCCNCc2cc(CNCCCCc3ccccc3)cc(CNCCCCc3ccccc3)c2)cc1 | 1.81 µM (inactive) | 1.02 µM (active) | 1.97 µM (inactive) | 1.45 µM (inactive) | 1.12 µM (inactive) | 2.6 µM (inactive) | 0.556 µM (active) | 0.211 µM (active) | 0.364 µM (active) | 1.31 µM (inactive) | 0.782 µM (active) | 0.667 µM (active) | 0.948 µM (active) | 1.31 µM (inactive) | 1.66 µM (inactive) | 1.7 µM (inactive) | 1.41 µM (inactive) | 0.815 µM (active) | 1.75 µM (inactive) | 1.76 µM (inactive) |
| CCOC(=O)NC(C(=O)OCC)(N1CCN(c2cc3c(cc2F)c(=O)c(C(=O)O)cn3CC)CC1)C(F)(F)F (stereo not given) | > 100 µM (inactive) | > 100 µM (inactive) | > 100 µM (inactive) | > 100 µM (inactive) | 58.1 µM (inactive) | > 100 µM (inactive) | > 100 µM (inactive) | > 100 µM (inactive) | > 100 µM (inactive) | > 100 µM (inactive) | 6.1 µM (inactive) | > 100 µM (inactive) | 0.197 µM (active) | > 100 µM (inactive) | > 100 µM (inactive) | > 100 µM (inactive) | > 100 µM (inactive) | > 100 µM (inactive) | > 100 µM (inactive) | > 100 µM (inactive) |
| CC(C)c1cc2c(cc1S(=O)(=O)O)[C@@]1(C)CCC[C@@](C)(C(=O)O)C1CC2 (stereo not given in full) | > 100 µM (inactive) | > 100 µM (inactive) | > 100 µM (inactive) | > 100 µM (inactive) | > 100 µM (inactive) | > 100 µM (inactive) | > 100 µM (inactive) | > 100 µM (inactive) | > 100 µM (inactive) | > 100 µM (inactive) | > 100 µM (inactive) | > 100 µM (inactive) | > 100 µM (inactive) | > 100 µM (inactive) | > 100 µM (inactive) | > 100 µM (inactive) | > 100 µM (inactive) | > 100 µM (inactive) | > 100 µM (inactive) | > 100 µM (inactive) |
| COc1cc2c(c(O)c1OC)C(=O)C(Cc1ccc(O)cc1)CO2 (stereo not given) | 26.5 µM (inactive) | 75.7 µM (inactive) | 25.3 µM (inactive) | 30.3 µM (inactive) | 29.5 µM (inactive) | 37.9 µM (inactive) | 23.1 µM (inactive) | 24.5 µM (inactive) | 32.7 µM (inactive) | 13 µM (inactive) | 38.2 µM (inactive) | 3.27 µM (inactive) | 46.8 µM (inactive) | 32.9 µM (inactive) | 18.4 µM (inactive) | 48.3 µM (inactive) | 33.2 µM (inactive) | 35.3 µM (inactive) | 27.2 µM (inactive) | 19.9 µM (inactive) |
| CC(CC=O)Nc1nn2c(=O)c3ccccc3nc2s1 (stereo not given) | > 100 µM (inactive) | > 100 µM (inactive) | > 100 µM (inactive) | > 100 µM (inactive) | > 100 µM (inactive) | > 100 µM (inactive) | > 100 µM (inactive) | > 100 µM (inactive) | > 100 µM (inactive) | > 100 µM (inactive) | > 100 µM (inactive) | > 100 µM (inactive) | > 100 µM (inactive) | > 100 µM (inactive) | > 100 µM (inactive) | > 100 µM (inactive) | > 100 µM (inactive) | > 100 µM (inactive) | > 100 µM (inactive) | > 100 µM (inactive) |
| CC1=N[C@@](C)(C2CC3C=CC2C3=O)COC1=O (stereo not given in full) | > 100 µM (inactive) | > 100 µM (inactive) | > 100 µM (inactive) | > 100 µM (inactive) | > 100 µM (inactive) | > 100 µM (inactive) | > 100 µM (inactive) | > 100 µM (inactive) | > 100 µM (inactive) | > 100 µM (inactive) | > 100 µM (inactive) | > 100 µM (inactive) | > 100 µM (inactive) | > 100 µM (inactive) | > 100 µM (inactive) | > 100 µM (inactive) | > 100 µM (inactive) | > 100 µM (inactive) | > 100 µM (inactive) | > 100 µM (inactive) |
